Like-named read-outs stand apart in the source and are kept apart here.
Columns and labels:
neutrophils [1] = tested on: neutrophils
Procedure: (§1) Neutrophils were isolated from peripheral blood. 3.5 ml of heparinised blood was spread over M-PRM medium (Flow Laboratories) and centrifuged for 40 minutes at 400g at 20° C. […] The cells were adjusted to a concentration of 2×10^6 ml.
(§2) Adhesion: 100 μl of neutrophil suspension were placed in the wells of a flat-bottomed culture dish, and incubated at 37° C. for 60 minutes. After washing off the non-adhesive cells, the adhered neutrophils were fixed with ethanol and stained with Romanovsky-Giemsa dye. After washing out the free dye, the cell-associated dye was dissolved in isopropanol, and the optical density (OD650) of the solution was determined using an "ELISA II" microprocessor (Boehringer). The number of adherent cells was calculated by reference to a standard curve.
(§3) In the treated group GMDP was given per os on days -2 and -1 before the operation, and subcutaneously on days +1, +2 and +3 after the operation at a dose of 1-2 mg/day. The total dose of GMDP was […]. On day +5 after the operation neutrophil function was again assessed in all patients by the same parameters as specified above.

neutrophils [2] = tested on: neutrophils; remark: listed apart in the source
Procedure: as §1
Chemiluminescence: Luminol-dependent chemiluminescence was measured on a 1251 Luminometer (LKB).
(§4) For chemiluminescence, superoxide anion production, myeloperoxidase and acid phosphatase both the spontaneous and induced reactions were measured. Induction was performed by exposing the cells to opsonized zymosan (30 μl, 20 mg/ml) for 30 minutes at 37° C. before the assay.
as §3

neutrophils [3] = tested on: neutrophils; remark: listed apart in the source
Procedure: as §1
Superoxide anion production was determined by the NBT test (Merck).
as §4, §3

neutrophils [4] = tested on: neutrophils; remark: listed apart in the source
Procedure: as §1
Myeloperoxidase: 100 μl of substrate mixture, consisting of 0.04% orthophenylene diamine (Sigma) and 0.014% hydrogen peroxide in phosphate citrate buffer (pH 5.0) was added to cells and incubated for 10 minutes before the reaction was stopped with 100 μl of 10% sulphuric acid. The optical density at 492 mu was measured with a Multiscan Titertek Plus (Flow Laboratories).
as §4, §3

[5] = tested on: patients suffering from acute sepsis; conditions: GMDP parenterally 1-2 mg/day for five days
Procedure: The patients entering this trial were already suffering from serious systemic bacterial sepsis arising as a result of destructive cholecystitis, abscesses of the abdominal cavity, peritonitis, pancreonecrosis and post-operative pneumonia.
(§5) On day before treatment with GMDP (day -1) the neutrophil function of all patients was measured by the tests described above in Example 1. In the GMDP-treated group, GMDP was administered parenterally at a dose of 1-2 mg/day for five consecutive days. The total dose of GMDP was […].

neutrophils [6] = tested on: neutrophils; remark: listed apart in the source
Procedure: as §1, §2, §5
One day after the cessation of GMDP treatment (day +6), neutrophil function was again measured in all patients.

[7] = tested on: LPS-induced mortality in mice; test: Example 3: LPS-induced mortality in mice; type: in vivo, BALB/c mice; conditions: i.p. twice daily 100 μg or molar equivalent per mouse for 9 days before 300 μg LPS; mortality 2 days after LPS; FIG. 1
Procedure: 25 female BALB/c mice weighing 16-18 g each were divided into 5 groups, each group containing 5 animals. Each group of mice received twice-daily doses of saline, GMDP, GMDP-OBu, MDP or GMDP-A. The compounds were administered by intra-peritoneal injection in twice-daily doses of 100 μg or the molar equivalent per mouse during a 9-day period before the injection of 300 μg LPS per mouse. […] Thus GMDP and GMDP-A would be useful in the treatment and prevention of sepsis and septic shock, whereas MDP and GMDP-OBu would not.

TNFα = test: Example 5: TNF production in whole blood culture; type: cell-based; conditions: human blood diluted 1:2, 6 hours at 37° C., TNFα capture ELISA; FIG. 3
Procedure: Whole heparinized human blood was diluted 1:2 with RPMI and dispensed into 96-well microtitre plates. Individual wells were treated with saline, GMDP, MDP or LPS at the doses shown above. After incubating at 37° C. for 6 hours, the supernatants were assayed for TNFα by a standard capture ELISA method. […] This is a sensitive assay for measuring the effect of mediators on immune cell production of TNFα which is believed to be a primary mediator of inflammation, coagulopathy and death in sepsis and septic shock. It can be seen that GMDP is the least inflammatory mediator; the respective TNF inducing activities of these substances would […] correlate with their toxicities.

serum TNF = test: Example 7: LPS induction of serum TNF; type: in vivo, BALB/c mice; conditions: C. parvum-primed mice, 100 μg (equimolar) IP, LPS 25 μg 18 hours later; FIG. 5
Procedure: In this experiment, 4 compounds were tested and these are: MDP, GMDP-A, GMDP-OBu and GMDP. Saline was administered to control mice. BALB/c mice (6 mice/group) were injected intraperitoneally with 1.4 mg of dead C. parvum (0.2 ml of a 7 mg/ml suspension.). Mice were subsequently (2 weeks later) treated with saline, MDP (100 μg) or analogue (100 μg) in 0.5 ml saline IP. The dose of each `MDP` was adjusted so that animals received equimolar amounts. LPS (25 μg) was injected 18 hours after the injection of MDP/analogue and mice were subsequently sacrificed and bled out. TNF was determined by standard capture ELISA assay.

mice = conditions: acute toxicity in mice; cited from earlier work
peritoneal macrophages = conditions: 100 μg i.p. per mouse, LPS 300 μg one day later, black ink uptake, OD 610 nm; FIG. 2
Procedure: Mice were divided into 9 groups and to each group was administered one of the following: saline, MDP, MDP-OBu, MDP-Thr, GMDP, MDP-Lys(St), GMDP-OH and GMDP-LL.
The compound under test was injected into the peritoneal cavity of mice, each mouse receiving 100 μg or an equimolar equivalent dose. Control mice received 200 μl of saline. One day after injection of the muramyl peptide, a lethal does of LPS (300 μg per mouse) in 200 μl of physiological saline was injected intraperitoneally and after 20 minutes, 1 ml of black ink was also administered intraperitoneally. 10 minutes later, peritoneal macrophages were obtained and washed twice. The number of cells was counted and then the macrophages were lysed and the optical density of the supernatant was determined at 610 nm.

[8] = opsonized zymosan, Day -3 (before treatment)
[9] = opsonized zymosan, Day -3 to Day +5

CC(=O)NC1C(OC2C(CO)OC(O)C(NC(C)=O)C2OC(C)C(=O)NC(C)C(=O)NC(CCC(=O)O)C(N)=O)OC(CO)C(O)C1O [GMDP, N-acetyl-D-glucosaminyl-(β1-4)-N-acetylmuramyl-L-alanyl-D-isoglutamine]
Adhesion (neutrophils [1]; Day +5 after operation): 47.9 ± 12.6 O.D. 650μ | Adhesion (neutrophils [1]; Day -3 (before treatment)): 39.8 ± 5.4 O.D. 650μ | Adhesion % Change (neutrophils [1]; Day -3 to Day +5): +20.4% | Chemiluminescence, spontaneous (neutrophils [2]; Day +5): 3.37 ± 0.70 mV | Chemiluminescence, spontaneous (neutrophils [2]; Day -3 (before treatment)): 1.82 ± 0.07 mV | Chemiluminescence, spontaneous % Change (neutrophils [2]; Day -3 to Day +5): +85.2% | Chemiluminescence, induced (neutrophils [2]; opsonized zymosan, Day +5): 15.8 ± 4.2 mV | Chemiluminescence, induced (neutrophils [2]; [8]): 11.3 ± 2.1 mV | Chemiluminescence, induced % Change (neutrophils [2]; [9]): +39.8% | Superoxide, spontaneous (neutrophils [3]; Day +5): 97.6 ± 12.8 | Superoxide, spontaneous (neutrophils [3]; Day -3 (before treatment)): 78.9 ± 15.7 | Superoxide, spontaneous % Change (neutrophils [3]; Day -3 to Day +5): +23.7% | Superoxide, induced (neutrophils [3]; opsonized zymosan, Day +5): 134.9 ± 11.3 | Superoxide, induced (neutrophils [3]; [8]): 133.7 ± 16.1 | Superoxide, induced % Change (neutrophils [3]; [9]): +0.9% | Myeloperoxidase, spontaneous (neutrophils [4]; Day +5): 1075 ± 178.3 O.D. 492μ | Myeloperoxidase, spontaneous (neutrophils [4]; Day -3 (before treatment)): 1145 ± 204.1 O.D. 492μ | Myeloperoxidase, spontaneous % Change (neutrophils [4]; Day -3 to Day +5): -6.1% | Myeloperoxidase, induced (neutrophils [4]; opsonized zymosan, Day +5): 948.3 ± 205 O.D. 492μ | Myeloperoxidase, induced (neutrophils [4]; [8]): 948.3 ± 205 O.D. 492μ | Myeloperoxidase, induced % Change (neutrophils [4]; [9]): +11.2% | No of patients with progression of septic complications ([5]; 14 treated patients): 4 | Mortality (%) ([5]; control 27%): 14.3% | Incidence of progression of septic complications (%) ([5]; control 61%): 28.6% | Adhesion (neutrophils [6]; Day +6): 52.3 ± 2.3 O.D. 650μ | Adhesion (neutrophils [6]; Day -1 (before treatment)): 34.6 ± 6.2 O.D. 650μ | Adhesion % Change (neutrophils [6]; Day -1 to Day +6): +51.2% | effect on LPS-induced mortality [7]: antagonise the effect of LPS | TNF production in whole blood culture (TNFα): poor inducer of TNF | effect on LPS induction of serum TNF (serum TNF): able to suppress the production of TNFα | LD50 (mice): 7000 mg/kg | phagocytic activity of macrophages (peritoneal macrophages): potent in increasing macrophage activity
